pIC50: −log10 of the molar value. Calls of active or inactive are those of the source. The calls are words filed in the database; no cut-off is given here.
Columns and labels:
MDA-MB-231 [1] = test: Induction of cell cycle arrest in human MDA-MB-231 cells assessed as reduction in accumulation at S phase at 5 uM after 24 hrs by propidium iodide staining based flow cytometry; type: functional
MDA-MB-231 [2] = test: Induction of DNA damage in human MDA-MB-231 cells assessed as increase in p53 S46 phosphorylation at 1 to 5 uM after 24 hrs by Western blot method; type: functional, cell-based
MDA-MB-231 [3] = test: Antitumor activity against human MDA-MB-231 cells xenografted in BALB/c-nu mouse assessed as reduction in tumor weight at 20 mg/kg, iv dosed every other day for 15 days; type: functional; conditions: MDA-MB-231, 360 h
HeLa = test: Cytotoxicity against human HeLa cells after 72 hrs by sulforhodamine B assay; type: functional, cell-based
MDA-MB-231 [4] = test: Induction of cell cycle arrest in human MDA-MB-231 cells assessed as accumulation at G2/M phase at 5 uM after 24 hrs by propidium iodide staining based flow cytometry (reference value: 25.19%); type: functional
MDA-MB-231 [5] = test: Induction of DNA damage in human MDA-MB-231 cells assessed as increase in gammaH2AX protein expression at 1 to 5 uM after 24 hrs by Western blot method; type: functional, cell-based
MDA-MB-231 [6] = test: Induction of DNA damage in human MDA-MB-231 cells assessed as ATM S1981 phosphorylation at 1 to 5 uM after 24 hrs by Western blot method; type: functional, cell-based
MDA-MB-231 [7] = test: Induction of cell cycle arrest in human MDA-MB-231 cells assessed as reduction in accumulation at G0/G1 phase at 5 uM after 24 hrs by propidium iodide staining based flow cytometry; type: functional
[8] = molecular target: DNA topoisomerase 2-alpha (Homo sapiens) (UniProt P11388); test: Inhibition of human recombinant topoisomerase 2alpha assessed as increase in linear DNA using circular supercoiled plasmid DNA substrate at 100 to 200 uM incubated for 30 mins by ethidium bromide staining based DNA gel electrophoresis
MDA-MB-231 [9] = test: Induction of DNA damage in human MDA-MB-231 cells assessed as increase in p53 expression level at 1 to 5 uM after 24 hrs by Western blot method; type: functional, cell-based
MDA-MB-231 [10] = test: Increase in cyclin B protein expression in human MDA-MB-231 cells at 1 to 5 uM after 24 hrs by Western blot method; type: functional, cell-based
MDA-MB-231 [11] = test: Cytotoxicity against human MDA-MB-231 cells after 72 hrs by sulforhodamine B assay; type: functional, cell-based; conditions: MDA-MB-231, 72 h
MDA-MB-231 [12] = test: Effect on cdc2 protein expression in human MDA-MB-231 cells at 1 to 5 uM after 24 hrs by Western blot method; type: functional, cell-based
Mus musculus = test: Toxicity in nude BALB/c mouse xenografted with human MDA-MB-231 cells assessed as reduction in body weight at 20 mg/kg, iv dosed every other day for 15 days (reference value: 24.2 g); type: organism-based; design: dose 20 mg/kg, route intravenous; conditions: in vivo, 360 h
MDA-MB-231 [13] = test: Induction of DNA damage in human MDA-MB-231 cells assessed as ATM expression level at 1 to 5 uM after 24 hrs by Western blot method; type: functional, cell-based
[14] = molecular target: DNA topoisomerase 2-alpha (Homo sapiens) (UniProt P11388); test: Inhibition of human recombinant topoisomerase 2alpha assessed as reduction in pBR322 DNA relaxation at 100 uM incubated for 30 mins by DNA gel electrophoresis
[15] = molecular target: DNA topoisomerase 2-alpha (Homo sapiens) (UniProt P11388); test: Inhibition of human recombinant topoisomerase 2alpha assessed as reduction in pBR322 DNA relaxation incubated for 30 mins by DNA gel electrophoresis
MDA-MB-231 [16] = test: Induction of DNA damage in human MDA-MB-231 cells assessed as ATR expression level at 1 to 5 uM after 24 hrs by Western blot method; type: functional, cell-based
Nucleic Acid = test: Induction of DNA intercalation in Escherichia coli pBR322 DNA at 50 to 200 uM by DNA gel electrophoresis; type: nucleic-acid assay
[17] = molecular target: DNA topoisomerase 2-alpha (Homo sapiens) (UniProt P11388); test: Inhibition of human recombinant topoisomerase 2alpha assessed as reduction in kDNA decatenation at 100 uM incubated for 30 mins by DNA gel electrophoresis
A549 = test: Cytotoxicity against human A549 cells after 72 hrs by sulforhodamine B assay; type: functional, cell-based; conditions: A549, 72 h
MDA-MB-231 [18] = test: Induction of DNA damage in human MDA-MB-231 cells assessed as increase in ATR S428 phosphorylation at 1 to 5 uM after 24 hrs by Western blot method; type: functional, cell-based
MDA-MB-231 [19] = test: Increase in histone H3 Ser10 phosphorylation in human MDA-MB-231 cells at 1 to 5 uM after 24 hrs by Western blot method; type: functional, cell-based
[20] = molecular target: DNA topoisomerase 2-alpha (Homo sapiens) (UniProt P11388); test: Inhibition of human recombinant topoisomerase 2alpha assessed as reduction in pBR322 DNA relaxation at 200 uM incubated for 30 mins by DNA gel electrophoresis

Sequence of DNA topoisomerase 2-alpha (Homo sapiens) (P11388 whole entry): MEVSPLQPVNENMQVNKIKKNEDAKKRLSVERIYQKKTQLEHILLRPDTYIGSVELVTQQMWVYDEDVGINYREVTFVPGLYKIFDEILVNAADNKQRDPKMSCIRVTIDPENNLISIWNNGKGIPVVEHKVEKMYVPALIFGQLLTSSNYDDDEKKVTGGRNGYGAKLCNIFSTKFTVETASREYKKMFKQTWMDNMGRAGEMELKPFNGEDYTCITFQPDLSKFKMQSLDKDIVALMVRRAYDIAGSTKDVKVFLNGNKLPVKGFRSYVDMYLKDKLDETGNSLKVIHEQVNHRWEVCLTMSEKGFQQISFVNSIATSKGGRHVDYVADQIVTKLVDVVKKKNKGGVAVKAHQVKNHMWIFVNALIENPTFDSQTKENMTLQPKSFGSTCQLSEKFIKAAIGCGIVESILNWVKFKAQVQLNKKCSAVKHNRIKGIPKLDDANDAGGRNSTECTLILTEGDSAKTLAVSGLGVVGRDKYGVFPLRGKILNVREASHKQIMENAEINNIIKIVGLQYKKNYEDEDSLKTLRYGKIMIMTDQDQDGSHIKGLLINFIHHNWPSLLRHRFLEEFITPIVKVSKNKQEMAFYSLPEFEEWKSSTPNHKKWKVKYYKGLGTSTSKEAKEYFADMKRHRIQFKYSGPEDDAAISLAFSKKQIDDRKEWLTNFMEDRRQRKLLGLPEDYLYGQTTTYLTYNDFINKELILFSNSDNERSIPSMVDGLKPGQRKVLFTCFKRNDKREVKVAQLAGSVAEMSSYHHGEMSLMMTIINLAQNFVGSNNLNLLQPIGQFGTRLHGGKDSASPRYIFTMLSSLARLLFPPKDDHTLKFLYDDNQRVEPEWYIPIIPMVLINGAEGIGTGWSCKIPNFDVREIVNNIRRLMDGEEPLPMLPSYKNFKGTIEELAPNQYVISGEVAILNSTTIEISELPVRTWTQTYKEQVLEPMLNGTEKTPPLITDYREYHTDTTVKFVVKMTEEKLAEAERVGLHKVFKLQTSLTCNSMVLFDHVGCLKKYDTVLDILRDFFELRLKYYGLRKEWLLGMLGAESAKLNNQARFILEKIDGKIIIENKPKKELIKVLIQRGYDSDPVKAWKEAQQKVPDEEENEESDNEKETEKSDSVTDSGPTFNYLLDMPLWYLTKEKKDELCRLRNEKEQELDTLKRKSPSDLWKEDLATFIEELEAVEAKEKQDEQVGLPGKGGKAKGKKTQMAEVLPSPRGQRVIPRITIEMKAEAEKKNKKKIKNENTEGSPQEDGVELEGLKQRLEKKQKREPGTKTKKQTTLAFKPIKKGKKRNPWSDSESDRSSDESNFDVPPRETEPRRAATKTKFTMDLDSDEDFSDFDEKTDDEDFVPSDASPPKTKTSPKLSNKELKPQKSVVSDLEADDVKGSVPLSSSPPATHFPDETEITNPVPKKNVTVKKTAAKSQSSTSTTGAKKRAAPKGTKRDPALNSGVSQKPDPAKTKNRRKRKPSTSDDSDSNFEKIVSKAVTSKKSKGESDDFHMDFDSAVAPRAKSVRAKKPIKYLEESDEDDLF

inhibition [8]: Active
inhibition [14]: Active
inhibition [15]: Dose-dependent effect
Activity (Nucleic Acid): inactive
inhibition [17]: Active
inhibition [20]: Active
SMILES: OCc1cc(-c2ccc3cc(O)ccc3c2)ccc1O
Activity (MDA-MB-231 [1]): Active
Activity (MDA-MB-231 [2]): Active
inhibition in vivo at 20 mg/kg (MDA-MB-231 [3]): 43.1%
pIC50 (HeLa): 5.89
Activity (MDA-MB-231 [4]): 77.79%
Activity (MDA-MB-231 [5]): Dose-dependent effect
Activity (MDA-MB-231 [6]): inactive
Activity (MDA-MB-231 [7]): Active
Activity (MDA-MB-231 [9]): Active
Activity (MDA-MB-231 [10]): Active
pIC50 (MDA-MB-231 [11]): 6.00
Activity (MDA-MB-231 [12]): inactive
Activity (Mus musculus): Non-toxic
Activity (MDA-MB-231 [13]): inactive
Activity (MDA-MB-231 [16]): inactive
pIC50 (A549): 5.55
Activity (MDA-MB-231 [18]): Active
Activity (MDA-MB-231 [19]): Active

— ChEMBL document CHEMBL3351570, “Design and synthesis of 2-phenylnaphthalenoids as inhibitors of DNA topoisomeraseIIα and antitumor agents” (Eur J Med Chem, 2014)
